# According to patent US7964732B2, “Substituted bicyclocarboxyamide compounds” (Pfizer Inc., priority 2006, dated 2011):
# Target: T1, human VR1 (Homo sapiens, UniProt Q8NER1)
# T1 construct: host or cells: cells that express human VR1 receptors (cell type not specified)
# Assay: Human VR1 antagonist assay (Ca2+ imaging assay using human VR1 highly expressing cells)
# Type: cell-based
# Conditions: intracellular Ca2+ imaging (fura-2)
# From the text: VR1 antagonistic activity can be determined by the Ca^2+ imaging assay using human VR1 highly expressing cells. The cells that highly express human VR1 receptors are obtainable from several different conventional methods. The one standard method is cloning from human Dorsal Root Ganglion (DRG) or kidney according to the methods such as described in the journal article; Nature, 389, pp 816-824, 1997. Alternatively VR1 receptors highly expressing human keratinocytes are also known and published in the journal article (Biochemical and Biophysical Research Communications, 291, pp 124-129, 2002). […] Furthermore, the method to up regulate human VR1 gene, which is usually a silent gene or don't produce detectable level of VR1 receptors, is also available to obtain propriety cells. Such genetic modification method was described in detail; Nat. Biotechnol., 19, pp 440-445, 2001.
# The cells that express human VR1 receptors were maintained in culture flask at 37° C. in an environment containing 5% CO2 until use in the assay. The intracellular Ca^2+ imaging assay to determine VR1 antagonistic activities were done by following procedures.
# The culture medium was removed from the flask and fura-2/AM fluorescent calcium indicator was added to the flask at a concentration of 5 μM in the medium. The flask was placed in CO2 incubator and incubated for 1 hour. Then the cells expressing the human VR1 receptors were detached from the flask follow by washing with phosphate buffer saline, PBS(−) and re-suspended in assay buffer. The 80 μl of aliquot of cell suspension (3.75×10^5 cells/ml) was added to the assay plate and the cells were spun down by centrifuge (950 rpm, 20° C., 3 minutes).
# Compounds of the examples were tested in the Human VR1 antagonist assay described above.
# The capsaicin-induced changes in the intracellular calcium concentration were monitored using FDSS 6000 (Hamamatsu Photonics, Japan), a fluorometric imaging system. The cell suspension in Krebs-Ringer HEPES (KRH) buffer (115 mM NaCl, 5.4 mM KCl, 1 mM MgSO4, 1.8 mM CaCl2, 11 mM D-Glucose, 25 mM HEPES, 0.96 mM Na2HPO4, pH 7.3) were pre-incubated with varying concentrations of the test compounds or KRH buffer (buffer control) for 15 minutes at room temperature under the dark condition. Then capsaicin solution, which gives 300 nM in assay mixture, was automatically added to the assay plate by the FDSS 6000.
# The Acid-induced changes in the intracellular calcium concentration were monitored using FDSS 6000 (Hamamatsu Photonics, Japan), a fluorometric imaging system. The cell suspension in resting buffer (HBSS supplemented with 10 mM HEPES, pH 7.4) were pre-incubated with varying concentrations of the test compounds or resting buffer (buffer control) for 15 minutes at room temperature under the dark condition. The cells were automatically added the stimulating solution (HBSS supplemented with MES, final assay buffer pH5.8) by the FDSS 6000.
# The monitoring of the changes in the fluorescence signals (λex=340 nm/380 nm, λem=510-520 nm) was initiated at 1 minute prior to the addition of capsaicin solution or acidic buffer and continued for 5 minute.
# T1 sequence (Q8NER1 whole entry): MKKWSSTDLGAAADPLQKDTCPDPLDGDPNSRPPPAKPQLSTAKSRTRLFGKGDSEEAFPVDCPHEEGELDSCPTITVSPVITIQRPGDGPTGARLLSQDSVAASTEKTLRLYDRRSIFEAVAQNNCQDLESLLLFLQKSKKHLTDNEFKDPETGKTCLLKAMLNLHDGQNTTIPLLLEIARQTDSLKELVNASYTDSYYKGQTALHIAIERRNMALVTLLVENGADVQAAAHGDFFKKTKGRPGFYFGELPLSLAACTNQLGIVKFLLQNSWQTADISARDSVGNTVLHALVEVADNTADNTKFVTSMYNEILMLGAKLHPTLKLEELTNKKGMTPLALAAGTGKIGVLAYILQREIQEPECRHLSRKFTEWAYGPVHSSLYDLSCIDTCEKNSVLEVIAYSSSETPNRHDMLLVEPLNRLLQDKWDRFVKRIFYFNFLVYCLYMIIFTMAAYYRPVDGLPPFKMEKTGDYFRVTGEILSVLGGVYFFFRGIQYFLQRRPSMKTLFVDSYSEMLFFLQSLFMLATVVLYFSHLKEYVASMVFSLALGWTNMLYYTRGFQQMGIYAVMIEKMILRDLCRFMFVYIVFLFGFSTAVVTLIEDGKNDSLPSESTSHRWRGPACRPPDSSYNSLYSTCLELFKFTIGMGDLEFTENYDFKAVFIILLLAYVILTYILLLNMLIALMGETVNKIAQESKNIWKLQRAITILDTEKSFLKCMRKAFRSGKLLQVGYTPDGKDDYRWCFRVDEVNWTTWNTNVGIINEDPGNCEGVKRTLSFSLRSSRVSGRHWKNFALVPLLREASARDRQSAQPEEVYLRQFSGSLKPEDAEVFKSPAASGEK
row,IC50 [nM],SMILES
1,322,"C[C@@H](NC(=O)c1ccc2nc(C(C)(C)C(F)(F)F)ccc2c1)c1cnn(C)c1C#N [Example 3, (R)-N-(1-(5-cyano-1-methyl-1H-pyrazol-4-yl)ethyl)-2-(2,2,2-trifluoro-1,1-dimethylethyl)quinoline-6-carboxamide]"
2,607,"C[C@@H](NC(=O)c1ccc2nc(C(C)(C)C(F)(F)F)ccc2c1)c1cnn(C)c1CO [Example 4, (R)-N-(1-(5-(hydroxymethyl)-1-methyl-1H-pyrazol-4-yl)ethyl)-2-(2,2,2-trifluoro-1,1-dimethylethyl)quinoline-6-carboxamide]"
3,44.1,"Cc1c(C(C)NC(=O)c2ccc3nc(C(C)(C)C(F)(F)F)ccc3c2)cnn1CC(F)(F)F (centres unmarked) [Example 5, N-(1-(5-methyl-1-(2,2,2-trifluoroethyl)-1H-pyrazol-4-yl)ethyl)-2-(2,2,2-trifluoro-1,1-dimethylethyl)quinoline-6-carboxamide]"
4,313,"Cc1c([C@@H](C)NC(=O)c2ccc3nc(C4(C)CC4)ccc3c2)cnn1C [Example 13, N-[(1R)-1-(1,5-dimethyl-1H-pyrazol-4-yl)ethyl]-2-(1-methylcyclopropyl) quinoline-6-carboxamide]"
5,71.7,"CCn1ncc(CNC(=O)c2ccc3nc(C(C)(C)C(F)(F)F)ccc3c2)c1C [Example 15, N-[(1-ethyl-5-methyl-1H-pyrazol-4-yl)methyl]-2-(2,2,2-trifluoro-1,1-dimethylethyl)quinoline-6-carboxamide]"
6,28.9,"CCn1ncc(C(C)NC(=O)c2ccc3nc(C(C)(C)C(F)(F)F)ccc3c2)c1C (centres unmarked) [Example 16, N-[1-(1-ethyl-5-methyl-1H-pyrazol-4-yl)ethyl]-2-(2,2,2-trifluoro-1,1-dimethylethyl)quinoline-6-carboxamide]"
7,124,Cc1c(C(C)NC(=O)c2ccc3nc(C(C)(C)C(F)(F)F)ccc3c2)cnn1C1CCC1 (centres unmarked) [Example 17]
8,3,"C[C@@H](NC(=O)c1ccc2nc(C(C)(C)C(F)(F)F)ccc2c1)c1cnn(C)c1Cl [Example 18a, (R)-N-(1-(5-chloro-1-methyl-1H-pyrazol-4-yl)ethyl)-2-(2,2,2-trifluoro-1,1-dimethylethyl)quinoline-6-carboxamide]"
9,121,"Cc1c([C@@H](C)NC(=O)c2ccc3nc(C(F)(F)F)ccc3c2)cnn1C [Example 23, (R)-N-(1-(1,5-dimethyl-1H-pyrazol-4-yl)ethyl)-2-(trifluoromethyl) quinoline-6-carboxamide]"
10,23,"Cc1c(C(C)NC(=O)c2ccc3cc(C(C)(C)C)ccc3c2)cnn1C (centres unmarked) [Example 24, 6-tert-butyl-N-[1-(1,5-dimethyl-1H-pyrazol-4-yl)ethyl]-2-naphthamide]"
11,443,"Cc1nn(C)cc1CNC(=O)c1ccc2cc(C(C)(C)C)ccc2c1 [Example 26, 6-tert-butyl-N-[(1,3-dimethyl-1H-pyrazol-4-yl)methyl]-2-naphthamide]"
12,73,"Cc1c(CNC(=O)c2ccc3cc(C(C)(C)C)ccc3c2)cnn1C [Example 27, 6-tert-butyl-N-[(1,5-dimethyl-1H-pyrazol-4-yl)methyl]-2-naphthamide]"
13,57.4,"CCC(NC(=O)c1ccc2cc(C(C)(C)C)ccc2c1)c1cnn(C)c1C (centres unmarked) [Example 28, 6-tert-butyl-N-(1-(1,5-dimethyl-1H-pyrazol-4-yl)propyl)-2-naphthamide]"
14,20.1,"Cc1c([C@@H](C)NC(=O)c2ccc3cc(C4(C)CC4)ccc3c2)cnn1C [Example 30, N-[(1R)-1-(1,5-dimethyl-1H-pyrazol-4-yl)ethyl]-6-(1-methylcyclopropyl)-2-naphthamide]"

# More lines, now with the values behind:
row,SMILES,IC50 [nM]
1,"Cc1c([C@@H](C)NC(=O)c2ccc3cc(C(C)(O)C(F)(F)F)ccc3c2)cnn1C (mixture of isomers) [Example 31, N-[(1R)-1-(1,5-dimethyl-1H-pyrazol-4-yl)ethyl]-6-(2,2,2-trifluoro-1-hydroxy-1-methylethyl)-2-naphthamide]",177
2,"CCC(NC(=O)c1ccc2nc(C(C)(C)C(F)(F)F)ccc2c1)c1cnn(C)c1C (racemic) [Example 7, N-[1-(1,5-dimethyl-1H-pyrazol-4-yl)propyl]-2-(2,2,2-trifluoro-1,1-dimethylethyl)quinoline-6-carboxamide]",145
3,"CC[C@@H](NC(=O)c1ccc2nc(C(C)(C)C(F)(F)F)ccc2c1)c1cnn(C)c1C (single isomer, unassigned) [Example 8]",66
4,"Cc1c([C@@H](C)NC(=O)c2ccc3cc([C@@](C)(O)C(F)(F)F)ccc3c2)cnn1C (single isomer, unassigned) [Example 32]",52.7
5,"Cc1c(CNC(=O)c2ccc3nc(C(C)(C)C(F)(F)F)ccc3c2)cnn1C [Example 2, N-[(1,5-dimethyl-1H-pyrazol-4-yl)methyl]-2-(2,2,2-trifluoro-1,1-dimethylethyl)quinoline-6-carboxamide]",261
6,"Cc1[nH]ncc1C(C)NC(=O)c1ccc2nc(C(C)(C)C(F)(F)F)ccc2c1 (centres unmarked) [Example 9, N-[1-(5-methyl-1H-pyrazol-4-yl)ethyl]-2-(2,2,2-trifluoro-1,1-dimethylethyl)quinoline-6-carboxamide]",323
7,"Cc1c(C(C)NC(=O)c2ccc3nc(C(C)(C)C(F)(F)F)ccc3c2)cnn1CCO (centres unmarked) [Example 11, N-(1-(1-(2-hydroxyethyl)-5-methyl-1H-pyrazol-4-yl)ethyl)-2-(2,2,2-trifluoro-1,1-dimethylethyl)quinoline-6-carboxamide]",16.4
8,"Cc1c(C(C)NC(=O)c2ccc3nc(C(C)(C)C(F)(F)F)ccc3c2)cnn1CC(C)(C)O (centres unmarked) [Example 12, N-(1-(1-(2-hydroxy-2-methylpropyl)-5-methyl-1H-pyrazol-4-yl)ethyl)-2-(2,2,2-trifluoro-1,1-dimethylethyl)quinoline-6-carboxamide]",79.9
9,Cc1c([C@@H](C)NC(=O)c2ccc3nc(C(C)(O)C(F)(F)F)ccc3c2)cnn1C (some centres unmarked) [Example 14],63.7
10,"Cc1n[nH]c(C)c1CNC(=O)c1ccc2cc(C(C)(C)C)ccc2c1 [Example 25, 6-tert-butyl-N-[(3,5-dimethyl-1H-pyrazol-4-yl)methyl]-2-naphthamide]",118
11,"Cc1c(C(C)NC(=O)c2ccc3cc(C(F)(F)F)ccc3c2)cnn1C (centres unmarked) [Example 29, N-(1-(1,5-dimethyl-1H-pyrazol-4-yl)ethyl)-6-(trifluoromethyl)-2-naphthamide]",189
12,"Cc1c([C@@H](C)NC(=O)c2ccc3cc([C@](C)(O)C(F)(F)F)ccc3c2)cnn1C [Example 32a, N-[(1R)-1-(1,5-dimethyl-1H-pyrazol-4-yl)ethyl]-6-[(1S)-2,2,2-trifluoro-1-hydroxy-1-methylethyl]-2-naphthamide]",3190
13,"COC(C)(c1ccc2cc(C(=O)NC(C)c3cnn(C)c3C)ccc2c1)C(F)(F)F (centres unmarked) [Example 33, N-[1-(1,5-dimethyl-1H-pyrazol-4-yl)ethyl]-6-(2,2,2-trifluoro-1-methoxy-1-methylethyl)-2-naphthamide]",139
14,"Cc1c(CNC(=O)c2ccc3cc(C(C)(C)C)ccc3n2)cnn1C [Example 34, 6-tert-butyl-N-[(1,5-dimethyl-1H-pyrazol-4-yl)methyl]quinoline-2-carboxamide]",254
15,"Cc1nn(C)c(C)c1CNC(=O)c1ccc2cc(C(C)(C)C)ccc2c1 [Example 35, 6-tert-butyl-N-((1,3,5-trimethyl-1H-pyrazol-4-yl)methyl)-2-naphthamide]",1870
16,Cn1cc(CNC(=O)c2ccc3cc(C(C)(C)C)ccc3c2)cn1 [Example 36],3480
17,"Cc1c(C(C)NC(=O)c2ccc3cc(C(C)(C)O)ccc3c2)cnn1C (centres unmarked) [Example 37, N-[1-(1,5-dimethyl-1H-pyrazol-4-yl)ethyl]-6-(1-hydroxy-1-methylethyl)-2-naphthamide]",1000
18,"Oc1cc2c(cc1O)CN(C(=S)NCCc1ccc(Cl)cc1)CCC2 [capsazepin, reference compound]",237 to 455
